Measured values: US20250073202A1, “METHODS TO TREAT RENAL DISORDERS USING CALCIUM CHANNEL INHIBITORS” (The Trustees of Indiana University, priority 2018, published 2025)

Assays:
AKI-primed CD4+ cells = assay: In vitro stimulation of AKI-primed kidney CD4+ cells with Ang II and elevated Na+, IL17 response; assay type: cell-based, rat; settings: inhibitor 10 μM; Ang II 10^-7 M and 170 mM Na+; 12-14 hours; cells 7 days post I/R
Procedure: (§1) Total RNA was obtained from kidney using Trizol and the Zymogen RNA extraction kit and cDNA was prepared using MMLV enzyme (Invitrogen, Carlsburg, CA). Quantitative real time PCR (qPCR) using gene specific primers was performed using ABI 7500 (Applied Biosystems, Foster City, CA). mRNA values were calculated using 2^−ΔΔCt. Specific primers sequences for IL-6 (catalog #Rn01410330_m1), Kim-1 (#Rn00597703_m1) and IL17 (Rn01757168_m1) were purchased from ThermoFisher (Waltham, MA).
(§2) To evaluate protein expression of IL17 or Orai1, Orai2 or Orai3, cells were restimulated with PMA and ionomycin for 6 hours in the presence of monensin (Golgistop, 1 μg·ml, BD Biosciences) permeabilized with saponin ([…]) and stained with relevant antibody. Cells were scanned using flow cytometry (FACSCalibur, BD Biosciences, San Jose, CA) and scans were analyzed using Flowjo software (Tree Star, Ashland, OR).
CD4+T cells were isolated using the MACS Pan-T cell microbead separation kit (Miltenyl, Glabach, Germany). T cells were stimulated with plate bound anti-CD3 (precoated with 2 μg/mL) and soluble anti-CD28 (1 μg/mL). Cells (2.5×10^5 in 0.25 ml) were incubated 12-14 hours at 37° C. in RPMI medium supplemented with 10% FBS (Invitrogen) in a 48-well plate. Cells were challenged with Ang II (Sigma, 10^−7M) and raising the extracellular Na+ from 140 mM to 170 mM, using a 1 M NaCl solution. Calcium channel inhibitors 2ABP (10 μM, Sigma) AnCoA4 (10 μM, Millipore, Burlington, MA) and YM58483/BTP2 (10 μM) were included to evaluate effects on IL-17.

[1] = test system: progression of CKD induced by high-salt diet following recovery from I/R injury; assay: AKI-to-CKD progression: unilateral I/R, contralateral nephrectomy and high salt diet in rats (Study III); assay type: in vivo, rat
Text: Study III was designed to investigate SOCE on progression of CKD induced by high-salt diet following recovery from I/R injury using a model of AKI-to-CKD described previously. Rats acclimated to a standard diet (AIN 76A, Dyets, Bethlehem, PA) containing 0.4% NaCl were subjected to left unilateral I/R or sham surgery and allowed to recover for ˜5 weeks. Rats were then subjected to right unilateral nephrectomy and subsequently exposed to elevated dietary Na+ (AIN76A plus 4% NaCl) for an additional 4 weeks (FIG. 9). Sham-control rats were not subjected to renal pedicle clamping, but were subjected to unilateral nephrectomy. Simultaneous with exposure to high salt diet, rats were randomly assigned to vehicle or YM58483 treatment (1mg·kg^−1·day^−1; p.o.). At the end of all studies, rats were deeply anesthetized with 50-100 mg/kg pentobarbital (Fatal Plus, Vortech, Dearborn, MI) and kidneys harvested for analysis.
To measure creatinine, tail blood was collected in heparin containing tubes and centrifuged to collect plasma. Plasma creatinine was measured using a Pointe Scientific Analyzer and Creatinine Assay reagents using methods outlined by the manufacturer (Pointe Scientific, Canton MI). Urine was collected for 24 hours by placing rats in metabolic cages and urine volume was determined gravimetrically. Urine creatinine was measured using a colorimetric assay adopted for microplate readers. Creatinine clearance was measured using UCr*V/PCr.
At the time of tissue harvest, kidneys were bisected and one half was fixed by immersion in 10% formalin, embedded in paraffin and 5 μm sections stained with picrosirus red to assess fibrosis. For quantitative analysis, five random images of renal outer medulla were obtained using Leica DMLB (Scientific Instruments, Columbus, OH) microscope with a 20× objective. The percent area of picrosirus red stain was scored in a blinded fashion using Image J (NIH).
as §1
Freshly harvested kidneys were minced and digested in liberase (2 μg/ml. Roche, Indianapolis IN) for 15 min at 37° C. using Gentle MACs (Miltenyli, San Diego, CA). The digested tissue was filtered through a 100-μm mesh and washed with RPMI containing 10% fetal bovine serum (Invitrogen). Mononuclear cells were isolated using Percol (Sigma) density gradient centrifugation.
as §2
Study III was designed to investigate SOCE on progression of CKD induced by high-salt diet following recovery from I/R injury using a model of AKI-to-CKD described previously. Rats acclimated to a standard dict (AIN 76A, Dyets, Bethlehem, PA) containing 0.4% NaCl were subjected left unilateral I/R or sham surgery and allowed to recover for ˜5 weeks. Rats were then subjected to right unilateral nephrectomy and subsequently exposed to elevated dietary Na+ (AIN76A plus 4% NaCl) for an additional 4 weeks (FIG. 9). Sham-control rats were not subjected to renal pedicle clamping, but were subjected to unilateral nephrectomy. Simultaneous with exposure to high salt dict, rats were randomly assigned to vehicle or YM58483 treatment (1 mg·kg−1·day−1; p.o.). […]

[2] = 1 mg/kg/day p.o. during 4 weeks high salt diet

## Cc1nnsc1C(=O)Nc1ccc(-n2nc(C(F)(F)F)cc2C(F)(F)F)cc1 [YM58483/BPT2, N-[4-[3,5-Bis(trifluoromethyl)-1H-pyrazol-1-yl]phenyl]-4-methyl-1,2,3-thiadiazole-5-carboxamide]
AKI-primed CD4+ cells
  increase in IL17+ cells (IL17 protein, FACS): completely blocked
  increase of IL17 mRNA: completely blocked
[1]; [2]
  Kidney IL6 mRNA expression: significantly attenuated
  expression of Kim-1: significantly attenuated
  increase in B cells: significantly attenuated
  increase in MΦ/dendritic cells: significantly attenuated
  increase in kidney CD4+ cells: significantly attenuated
  increase in kidney CD8+ cells: significantly attenuated
  increased expression (re-stimulation) of IL17+ cells: significantly attenuated
  urinary albumin excretion: significantly attenuated
[1]; end of study, 9 weeks post I/R
  creatinine clearance (reduction relative to sham): significantly attenuated
[1]; picrosirius red, renal outer medulla
  development of interstitial fibrosis: significantly attenuated
